# Laboratory results reported in US5015631A, “Repairing agent for cells and tissues” (MECT Corporation, priority 1987, dated 1991).
# Where two headings read alike, the source gives them in different places.
# Key:
# [1] = tested on: nasal mucous membrane of rabbits; experiment: Subacute disappearance of cilia from nasal mucous membrane of rabbits and degeneration of the epithelium induced by exposure to sulfur dioxide; type: in vivo, Male New Zealand White rabbits; on disappearance of cilia: key: -: Unchanged; +: Slight; ++: Moderate change; +++: Severe
# Experimental: Effects on subacute disappearance of cilia from nasal mucous membrane of rabbits and degeneration of the epithelium thereof induced by exposure to sulfur dioxide:
# Male New Zealand White rabbits weighing 1.8 to 2.2 kg were used.
# (§1) Sodium N-acetylneuraminate (a product of MECT Corporation) was used.
# The rabbits were exposed to sulfur dioxide by means of a sulfur dioxide-exposing apparatus for 2 hours a day continuously for 5 weeks. The sulfur dioxide concentrations were 70 to 150 ppm in the first and second weeks and 200 to 300 ppm in the third to fifth weeks. After the third week, the inhalation of the material or physiological saline by means of an ultrasonic nebulizer (TUR-3200: a product of Nippon Koden Co., Ltd.) was made immediately before the exposure to sulfur dioxide.
# Group I: inhalation of 25 mg/kg of sodium N-acetylneuraminate for 2 minutes.
# Group II: inhalation of 1 ml of physiological saline for 2 minutes.
# Each group comprised six rabbits.
# Five weeks after completion of the exposure to sulfur dioxide, the rabbits were killed by venesection and the intranarial changes of them were examined by a microscopic observation and the results were compared with one another.
# mice [2] = experiment: Acute toxicity test in mice; type: in vivo; conditions: male, 20160 min
# Experimental: (§2) The acute toxicity tests of sodium N-acetylneuraminate to mice, rats and guinea pigs given by oral administration or subcutaneous injection, intraperitoneal injection, intravenous injection or inhalation, were conducted as follows:
# (§3) 20 w/v % (solution in distilled water)
# [3] = tested on: nasal mucous membranes of rats; experiment: Acute disappearance of cilia from nasal mucous membranes of rats and degeneration of the epithelium induced by exposure to sulfur dioxide; type: in vivo, Male Wistar rats; conditions: for Disappearance of cilia / Disappearance of epithelium / Monolayer squamous metaplasia of epithelium: per animal; on Disappearance of epithelium: key: -: Unchanged; +: Slight; ++: Moderate change; +++: Severe; on Monolayer squamous metaplasia of epithelium: key: -: Unchanged; +: Slight; ++: Moderate change; +++: Severe; on disappearance of cilia: key: -: Unchanged; +: Slight; ++: Moderate change; +++: Severe
# Experimental: The effects of test samples on acute disappearance of cilia from nasal mucous membranes of rats and the degeneration of the epithelium induced by exposure to sulfur dioxide:
# Male Wistar rats weighing 180 to 200 g were used.
# as §1
# The rats were exposed to 400 ppm of sulfur dioxide for 4 hours. 30 minutes after the exposure, the rats were caused to inhale the test sample or physiological saline as follows:
# Group I: inhalation of 300 mg/m^3 of sodium N-acetylneuraminate for 1 hour.
# Group II: inhalation of 100 mg/m^3 of sodium N-acetylneuraminate for 1 hour.
# Group III: inhalation of 20 ml/m^3 of the physiological saline for 1 hour.
# Each group comprised 5 rats.
# 24 hours after the inhalation of the materials or physiological saline, the rats were killed and their intranarial changes were examined by a microscopic observation and the results were compared with one another.
# Stability versus pH = type: physicochemical
# rats = experiment: Acute toxicity test in rats; type: in vivo
# Experimental: as §2, §3
# In the inhalation, the subjects were exposed to a spray of the compound o
# mice [4] = experiment: Simple acute toxicity test by intravenous injection in mice; type: in vivo, Male ddy mice; conditions: 3 mice
# Experimental: Simple acute toxicity test:
# Simple acute toxicity tests of the materials were conducted by intraveous injections for the mice as follows:
# Lithium, potassium, barium and magnesium N-acetylneuraminates (products of MECT Corporation) were used.
# Weight of the animal in the initial stage of the test: 17.7 to 21.1 g
# Number of mice for each level: 3
# (3) Room temperature: 23±1° C., humidity: 55±7%
# (4) Route of administration: intravenous injection
# The material was dissolved in the physiological saline. The concentration of the dose solution was adjusted so that 0.2 ml of the dose solution was administered per 20 g of the body weight of the mice. The solution was given to a tail of each mouse by the intravenous injection. The dose was 500, 1000 or 2000 mg/kg.
# The general symptoms and death were observed from immediately after the administration to seven days after the administration.
# [5] = Group I: inhalation 25 mg/kg for 2 minutes, per animal
# [6] = Group I: inhalation 300 mg/m^3 for 1 hour
# [7] = Group II: inhalation 100 mg/m^3 for 1 hour
smiles,measurement,setting,value
CC(=O)N[C@H]1[C@H]([C@H](O)[C@H](O)CO)OC(O)(C(=O)[O-])C[C@@H]1O.[Na+] (stereo partly drawn),"Squamous metaplasia of epithelium, comparison of groups",[1]; Group I (25 mg/kg) versus Group II (physiological saline),more serious in Group II than in Group I
same,Disappearance of cilia,[1]; [5],- and + and ++
same,Squamous metaplasia of epithelium,[1]; [5],- and + and ++
same,Inhibition of subacute disappearance of cilia and squamous metaplasia of epithelium / repair of cells and tissues of nasal mucous membranes,"[1]; sulfur dioxide exposure, 25 mg/kg inhalation",remarkable effect of inhibiting
same,LD50,mice [2]; intraperitoneal,"> 5,000 mg/kg"
same,LD50,mice [2]; intravenous,"> 5,000 mg/kg"
same,LD50,mice [2]; oral,"> 5,000 mg/kg"
same,LD50,mice [2]; subcutaneous,"> 5,000 mg/kg"
same,Disappearance of cilia,[3]; [6],++ and +
same,Disappearance of epithelium,[3]; [6],-
same,Monolayer squamous metaplasia of epithelium,[3]; [6],-
same,Disappearance of cilia,[3]; [7],+ and - and ++
same,Disappearance of epithelium,[3]; [7],-
same,Monolayer squamous metaplasia of epithelium,[3]; [7],-
same,Intranarial changes,"[3]; Groups I and II (300 and 100 mg/m^3), compared with Group III (physiological saline)",only the disappearance of cilia was observed and the degree of the disappearance was lower than that of Group III
same,"Inhibition of acute disappearance of cilia, monolayer squamous metaplasia and disappearance of epithelium / degeneration of nasal mucous membranes","[3]; sulfur dioxide exposure, rats",remarkable effect of inhibiting
same,pH range of greatest stability,Stability versus pH,5.5 to 6.0
same,LD50,rats,"> 5,000 mg/kg"
same,LD50,"rats; rats, female, inhalation, spray for one hour","> 4,000 mg/m^3"
same,LD50,"rats; rats, male, inhalation, spray for one hour","> 4,000 mg/m^3"
same,LD50,"rats; rats, male, intraperitoneal, 20160 min","> 5,000 mg/kg"
same,LD50,"rats; rats, male, intravenous, 20160 min","> 5,000 mg/kg"
same,LD50,"rats; rats, male, oral, 20160 min","> 5,000 mg/kg"
CC(=O)N[C@H]1[C@H]([C@H](O)[C@H](O)CO)OC(O)(C(=O)O)C[C@@H]1O (stereo partly drawn) [Barium N-acetylneuraminate],Final death rate,mice [4]; 500 mg/kg i.v.,3/3
same,Number of death with the elapse of time,"mice [4]; 500 mg/kg i.v., 1 hr",3
same,Number of death with the elapse of time,"mice [4]; 500 mg/kg i.v., 3 hrs",0
same,Number of death with the elapse of time,"mice [4]; 500 mg/kg i.v., 6 hrs",0
same,Number of death with the elapse of time,"mice [4]; 500 mg/kg i.v., 24 hrs",0
same,Number of death with the elapse of time,"mice [4]; 500 mg/kg i.v., 2 days",0
same,Number of death with the elapse of time,"mice [4]; 500 mg/kg i.v., 3 days",0
same,Number of death with the elapse of time,"mice [4]; 500 mg/kg i.v., 4 days",0
same,Number of death with the elapse of time,"mice [4]; 500 mg/kg i.v., 5 days",0
same,Number of death with the elapse of time,"mice [4]; 500 mg/kg i.v., 6 days",0
same,Number of death with the elapse of time,"mice [4]; 500 mg/kg i.v., 7 days",0
same,Number of death with the elapse of time,"mice [4]; 1000 mg/kg i.v., 1 hr",3
same,Number of death with the elapse of time,"mice [4]; 1000 mg/kg i.v., 3 hrs",0
same,Number of death with the elapse of time,"mice [4]; 1000 mg/kg i.v., 6 hrs",0
same,Number of death with the elapse of time,"mice [4]; 1000 mg/kg i.v., 24 hrs",0
same,Number of death with the elapse of time,"mice [4]; 1000 mg/kg i.v., 2 days",0
same,Number of death with the elapse of time,"mice [4]; 1000 mg/kg i.v., 3 days",0
same,Number of death with the elapse of time,"mice [4]; 1000 mg/kg i.v., 4 days",0
same,Number of death with the elapse of time,"mice [4]; 1000 mg/kg i.v., 5 days",0
same,Number of death with the elapse of time,"mice [4]; 1000 mg/kg i.v., 6 days",0
same,Number of death with the elapse of time,"mice [4]; 1000 mg/kg i.v., 7 days",0
same,Number of death with the elapse of time,"mice [4]; 2000 mg/kg i.v., 1 hr",3
same,Number of death with the elapse of time,"mice [4]; 2000 mg/kg i.v., 3 hrs",0
same,Number of death with the elapse of time,"mice [4]; 2000 mg/kg i.v., 6 hrs",0
same,Number of death with the elapse of time,"mice [4]; 2000 mg/kg i.v., 24 hrs",0
same,Number of death with the elapse of time,"mice [4]; 2000 mg/kg i.v., 2 days",0
same,Number of death with the elapse of time,"mice [4]; 2000 mg/kg i.v., 3 days",0
same,Number of death with the elapse of time,"mice [4]; 2000 mg/kg i.v., 4 days",0
same,Number of death with the elapse of time,"mice [4]; 2000 mg/kg i.v., 5 days",0
same,Number of death with the elapse of time,"mice [4]; 2000 mg/kg i.v., 6 days",0
same,Number of death with the elapse of time,"mice [4]; 2000 mg/kg i.v., 7 days",0
